For 15 molecules, IC50 results are on record in patent publication US20110201564A1, “SUBSTITUTED 7-SULFANYLMETHYL, 7-SULFINYLMETHYL AND 7-SULFONYLMETHYL INDOLES AND USE THEREOF” (BAYER SCHERING PHARMA AKTIENGESELLSCHAFT, priority 2008, published 2011).

Common to all, as to format: cell-based
Test [1] concerns the target T1, androgen receptor (AR) (Homo sapiens, UniProt P10275).
T1 construct: of the androgen receptor (AR, amino acids 667-919); expressed in transfected cells; host or cells: CHO K1
T1 sequence (P10275 668-920): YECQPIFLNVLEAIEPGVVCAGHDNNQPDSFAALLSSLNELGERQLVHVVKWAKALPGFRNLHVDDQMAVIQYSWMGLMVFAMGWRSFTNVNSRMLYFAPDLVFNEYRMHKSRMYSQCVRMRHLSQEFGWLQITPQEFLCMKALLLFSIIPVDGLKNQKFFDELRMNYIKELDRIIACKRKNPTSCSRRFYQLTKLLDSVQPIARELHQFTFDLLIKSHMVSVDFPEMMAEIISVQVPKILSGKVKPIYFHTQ
Briefly: Cellular in vitro assay, GAL4-AR chimera luciferase reporter in CHO K1 cells (selectivity). The conditions noted are these: antagonism vs dihydrotestosterone; CHO K1 GAL4-AR LBD luciferase reporter. An excerpt:
(§1) 1. Cellular In Vitro Assay to Determine the Inhibitory MR Activity and MR Selectivity Compared with Other Steroid Hormone Receptors
(§2) Antagonists of the human mineralocorticoid receptor (MR) are identified, and the activity of the compounds described herein is quantified with the aid of a recombinant cell line. The cell is originally derived from a hamster ovary epithelial cell (Chinese Hamster Ovary, CHO K1, ATCC: American Type Culture Collection, VA 20108, USA).
(§3) An established chimera system in which the ligand-binding domains of human steroid hormone receptors are fused to the DNA-binding domain of the yeast transcription factor GAL4 is used in this CHO K1 cell line. The GAL4-steroid hormone receptor chimeras produced in this way are cotransfected and stably expressed with a reporter construct in the CHO cells.
(§4) To generate the GAL4-steroid hormone receptor chimeras, the GAL4 DNA-binding domain (amino acids 1-147) from the vector pFC2-dbd (from Stratagene) is cloned with the PCR-amplified ligand-binding domains of the mineralocorticoid receptor (MR, amino acids 734-985), of the progesterone receptor (PR, amino acids 680-933) and of the androgen receptor (AR, amino acids 667-919) into the vector pIRES2 (from Clontech). The reporter construct, which comprises five copies of the GAL4 binding site upstream of a thymidine kinase promoter, leads to expression of firefly luciferase (Photinus pyralis) after activation and binding of the GAL4-steroid hormone receptor chimeras by the respective specific agonists aldosterone (MR), dexamethasone (GR), progesterone (PR) and dihydrotestosterone (AR).
(§5) The MR, PR and AR cells are plated out in medium (Optimem, 2.5% FCS, 2 mM glutamine, 10 mM HEPES) in 96- (or 384- or 1536-)well microtiter plates on the day before the assay and are kept in a cell incubator (96% humidity, 5% v/v CO2, 37° C.). On the day of the assay, the substances to be tested are taken up in the abovementioned medium and added to the cells. About 10 to 30 minutes after addition of the test substances, the respective specific agonists of the steroid hormone receptors are added. After a further incubation time of 5 to 6 hours, the luciferase activity is measured with the aid of a video camera. The measured relative light units as a function of the substance concentration result in a sigmoidal stimulation curve. The IC50 values are calculated with the aid of the GraphPad PRISM computer program (Version 3.02).
In general terms: In a reporter assay the amount or activity of a reporter protein is the signal.

In test [2] the target is T2, human mineralocorticoid receptor (MR) (Homo sapiens, UniProt P08235).
T2 construct: expressed in transfected cells; host or cells: CHO K1
T2 sequence (P08235 734-984 limits assumed): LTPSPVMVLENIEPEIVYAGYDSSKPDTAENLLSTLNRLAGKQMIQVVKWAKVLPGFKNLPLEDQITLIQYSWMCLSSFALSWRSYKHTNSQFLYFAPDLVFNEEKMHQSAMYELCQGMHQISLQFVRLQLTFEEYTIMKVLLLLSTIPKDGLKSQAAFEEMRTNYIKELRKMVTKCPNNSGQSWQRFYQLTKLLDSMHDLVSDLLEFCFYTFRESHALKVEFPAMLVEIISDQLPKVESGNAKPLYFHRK
Briefly: Cellular in vitro assay, GAL4-MR chimera luciferase reporter in CHO K1 cells (inhibitory MR activity). The conditions noted are these: antagonism vs aldosterone; CHO K1 GAL4-MR LBD luciferase reporter.
Source text: as §1, §2, §3, §4, §5

Test [3] deals with T3, progesterone receptor (PR) (Homo sapiens, UniProt P06401).
T3 construct: of the progesterone receptor (PR, amino acids 680-933); expressed in transfected cells; host or cells: CHO K1
T3 sequence (P06401 680-933): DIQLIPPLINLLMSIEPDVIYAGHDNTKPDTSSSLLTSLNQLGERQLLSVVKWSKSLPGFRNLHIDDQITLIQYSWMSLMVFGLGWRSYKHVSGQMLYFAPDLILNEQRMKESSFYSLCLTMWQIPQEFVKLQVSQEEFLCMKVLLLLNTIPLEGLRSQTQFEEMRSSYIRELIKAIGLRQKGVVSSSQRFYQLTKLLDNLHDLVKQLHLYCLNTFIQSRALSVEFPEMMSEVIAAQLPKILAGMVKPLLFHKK
The experiment in a line: Cellular in vitro assay, GAL4-PR chimera luciferase reporter in CHO K1 cells (selectivity). The conditions noted are these: antagonism vs progesterone; CHO K1 GAL4-PR LBD luciferase reporter.
Source text: as §1, §2, §3, §4, §5

Consider `C[S+]([O-])Cc1cccc2c(C(CCC#N)c3ccc(Cl)cc3)c[nH]c12` (single isomer, unassigned) [Example 78-4, 4-(4-Chlorophenyl)-4-{7-[(methylsulfinyl)methyl]-1H-indol-3-yl}butanonitrile], for which the results for the IC50 in test [1], in test [2] and in test [3] were 8.89 µM, 150 nM and 7.91 µM, respectively.
In the same order, the values of `CS(=O)(=O)Cc1cccc2c(C(CCCC#N)c3ccc(Cl)cc3)c[nH]c12` (stereo not drawn) [Example 70, 5-(4-Chlorophenyl)-5-{7-[(methylsulfonyl)methyl]-1H-indol-3-yl}pentanonitrile] are 9.66 µM, 250 nM and 7.75 µM.
In the same order, the values of `CSCc1cc(F)cc2c(C(CCC#N)c3ccc(Cl)cc3)c[nH]c12` (stereo not drawn) [Example 43, 4-(4-Chlorophenyl)-4-{5-fluoro-7-[(methylsulfanyl)methyl]-1H-indol-3-yl}butanonitrile] are 2.92 µM, 78 nM and 1.98 µM.
In the same order, the values of `CCC(CCC#N)(c1ccc(Cl)cc1)c1c[nH]c2c(CS(C)(=O)=O)cccc12` (single isomer, unassigned) [Enantiomer 172-1, 4-(4-Chlorophenyl)-4-{7-[(methylsulfonyl)methyl]-1H-indol-3-yl}hexanonitrile] are 3.8 µM, 7 nM and 4.31 µM.
Turning to `CS(=O)(=O)Cc1cccc2c(C(c3ccc(Cl)cc3Cl)C3CC3(F)F)c[nH]c12` (single isomer, unassigned) [Example 325-2, 3-[(2,4-Dichlorophenyl)(2,2-difluorocyclopropyl)methyl]-7-[(methylsulfonyl)methyl]-1H-indole], the values for the 50% inhibitory concentration (IC50) in test [1], in test [2] and in test [3] were 5.25 µM, 59 nM and 6.66 µM, respectively.
On the same counts, the results for `CSCc1cc(F)cc2c(C3(C4CC4)CCc4cc(F)ccc43)c[nH]c12` (stereo not drawn) [Example 94, 3-(1-Cyclopropyl-5-fluoro-2,3-dihydro-1H-inden-1-yl)-5-fluoro-7-[(methylsulfanyl)methyl]-1H-indole] are 1.6 µM, 160 nM and 3.14 µM.
With `C[S+]([O-])Cc1cc(F)cc2c(C(CCC#N)c3ccc(Cl)cc3Cl)c[nH]c12` (mixture of isomers) [Example 82, 4-(2,4-Dichlorophenyl)-4-{5-fluoro-7-[(methylsulfinyl)methyl]-1H-indol-3-yl}butanonitrile], the half-maximal inhibitory concentration (IC50) (usually the concentration that inhibits the measured activity by half) in test [1] came to 7.53 µM; in test [2] it was 210 nM; in test [3], 5.81 µM.
Regarding `CS(=O)(=O)Cc1cccc2c(C(c3ccc(F)cc3)c3ccc(Cl)cc3)c[nH]c12` (single isomer, unassigned) [Example 114-2, 3-[(4-Chlorophenyl)(4-fluorophenyl)methyl]-7-[(methylsulfonyl)methyl]-1H-indole], the results for the IC50 in test [1], in test [2] and in test [3] were 1.23 µM, 220 nM and 6.55 µM, respectively.
On to `CCC(CCO)(c1ccc(Cl)cc1)c1c[nH]c2c(CSC)cccc12` (stereo not drawn) [Example 140, 3-(4-Chlorophenyl)-3-{7-[(methylsulfanyl)methyl]-1H-indol-3-yl}pentan-1-ol], for which the 50% inhibitory concentration (IC50) in test [1] turned out to be 6.6 µM; in test [2] it was 270 nM; in test [3], 10 µM.
On the same counts, the results for `CSCc1cccc2c(C(c3ccc(F)cc3)c3ccc(Cl)cc3F)c[nH]c12` (stereo not drawn) [Example 104, 3-[(4-Chloro-2-fluorophenyl)(4-fluorophenyl)methyl]-7-[(methylsulfanyl)methyl]-1H-indole] are 5.01 µM, 100 nM and 8.56 µM.
In the same order, the values of `CC(c1ccc(Cl)cc1F)(c1c[nH]c2c(CS(C)(=O)=O)cccc12)C1CC1` (single isomer, unassigned) [Example 111-1, 3-[1-(4-Chloro-2-fluorophenyl)-1-cyclopropylethyl]-7-[(methylsulfonyl)methyl]-1H-indole] are 2.52 µM, 30 nM and 4.5 µM.
On the same counts, the results for `CS(=O)(=O)Cc1c(F)ccc2c(C(CCC#N)c3ccc(Cl)cc3)c[nH]c12` (stereo not drawn) [Example 71, 4-(4-Chlorophenyl)-4-{6-fluoro-7-[(methylsulfonyl)methyl]-1H-indol-3-yl}butanonitrile] are 3.99 µM, 320 nM and 4.47 µM.
Turning to `CCC(CCO)(c1ccc(Cl)cc1)c1c[nH]c2c(C[S+](C)[O-])cccc12` (mixture of isomers) [Example 143, 3-(4-Chlorophenyl)-3-{7-[(methylsulfinyl)methyl]-1H-indol-3-yl}pentan-1-ol], the IC50 amounted to 6.44 µM in test [1], 140 nM in test [2] and 4.58 µM in test [3].
For `CCC(CCC#N)(c1ccc(Cl)cc1)c1c[nH]c2c(C[S+](C)[O-])cccc12` (mixture of isomers) [Example 163, 4-(4-Chlorophenyl)-4-{7-[(methylsulfinyl)methyl]-1H-indol-3-yl}hexanonitrile], the IC50 in test [1] worked out at 4.76 µM; in test [2], 29 nM; in test [3], 2.72 µM.
In the case of `C[S+]([O-])Cc1cccc2c(C(c3ccc(F)cc3)c3ccc(Cl)cc3F)c[nH]c12` (mixture of isomers) [Example 130, 3-[(4-Chloro-2-fluorophenyl)(4-fluorophenyl)methyl]-7-[(methylsulfinyl)methyl]-1H-indole], the figures for the IC50 in test [1], in test [2] and in test [3] were 5.74 µM, 100 nM and 8.88 µM, respectively.
